Earlier results on one substance are cited in US11859165B2, “Open-top microfluidic device with structural anchors” (EMULATE, INC., priority 2015, dated 2024).

The test system of this series is cell monolayers with tight junctions. The conditions noted are these: passive paracellular diffusion across cell monolayers; value reported to be indicative of well-established monolayers.

Turning to Lucifer Yellow, the “Permeability (Papp) for LY” value is 0.5 to 1.2 ×10⁻⁶ cm/s.
